Experiment: TCEP stability in phosphate buffer by 31P NMR
Assay type: physicochemical
Details: 50 mM phosphate buffer, room temperature, over 14 days
Description: Due to the acidic nature of TCEP, to avoid any pH shift, a phosphate buffer (50 mM, pH 7) was used to sustain near‐physiological pH. The groups of Han39 and Whitesides37 described the chemical instability of TCEP above pH 7 in 300–400 mM phosphate buffer.
NMR spectroscopy: All ^1H NMR spectroscopy experiments were performed on a Bruker Avance III 700 MHz spectrometer equipped with a z‐gradient 5 mm probe head operating at 700.13 MHz for ^1H, whereas ^31P NMR spectroscopy experiments were performed on a Bruker Avance 250 spectrometer with a 5 mm SB quad probe head.

TCEP oxidation or degradation: no significant spectral changes
Structure (SMILES): O=C(O)CCP(CCC(=O)O)CCC(=O)O [TCEP, tris(2‐carboxyethyl)phosphine]

Source: PMC7079008, “Compactness of Protein Folds Alters Disulfide‐Bond Reducibility by Three Orders of Magnitude: A Comprehensive Kinetic Case Study on the Reduction of Differently Sized Tryptophan Cage Model Proteins” (Chembiochem, 2019)
